Assay results as given in US9643933B2, “Compounds useful as antibiotic tolerance inhibitors” (priority 2013, dated 2017).

How the values were obtained:
PQS [1] = test: Assay for PQS Inhibition (6 Hour Incubation); format: cell-based, P. aeruginosa PA14 wild-type strain
Description: A concentration range with 7 test concentrations is chosen for each test compound. Typically concentration ranges for the PQS and HHQ assays are from 0.03 to 31.6 μM. Compounds are prepared in solvent, usually DMSO, at either 200 or 500 times the final test concentration.
P. aeruginosa PA14 wild-type strain is inoculated into 5 ml LB broth in a 15 ml sterile glass culture tube and incubated overnight at 37° C. under shaking (˜240 rpm). After overnight incubation, the bacterial culture is diluted in fresh LB broth to an OD600 nm=0.04, and 5 mL aliquots of the diluted bacterial culture are distributed into 15-mL glass tubes. 10 μL of test compound at 500 times the final test concentration or 25 μL of test compound at 200 times the final test concentration or solvent alone is added to each of the bacterial suspension tubes, and the tubes are incubated at 37° C. under shaking (300 rpm) for 6 hours. At the end of the incubation period, a 0.5 mL aliquot of bacterial suspension is transferred from each 15 mL glass tube, after shaking, to a 2 mL polypropylene vial. 0.5 mL of methanol-containing D4-PQS (deuterated-PQS), D4-HHQ (deuterated-HHQ) and 2% acetic acid are added to each 2 mL vial and each vial is vigorously shaken. The vials are then centrifuged for 5 minutes at 12,000 g, and 200 μL of supernatant from each vial is transferred to a glass vial (vials crimp 0.2 mL), and the sealed vials are kept at 4° C. until LC-MS/MS analysis is performed. HAQs quantification is carried out analyzing samples in discrete batches together with spiked standards and blank samples. Calibration curves are constructed from HAQs standards, and respective deuterated forms are used as Internal Standards (IS), to calculate the concentration of analytes in the sample and improve the precision of the assay. The back-calculated concentrations of the calibration standards from the calibration curve shall be within ±20% of the nominal values, the range of the analytical method is determined, and the lower and upper limit of quantification specified.
(§1) Liquid chromatography separations are performed using Agilent HP1100 system (Agilent Technologies) coupled with a CTC PAL Autosampler (CTC Analytics AG). Chromatographic retention is obtained using a monolithic column (Chromolith® RP-18, 50×4.6 mm). The solvent system consists of water containing 0.1% (v/v) formic acid (A) and acetonitrile containing 0.1% (v/v) formic acid (B). The gradient elution profile is chosen as follows: 0 min: 70% A (1500 μL/min), 0.3 min: 70% A (1500 μL/min), 1.3 min: 5% A (2500 μL/min), 1.6 min: 5% A (2500 μL/min).
The MS/MS analysis is performed with a API4000 series mass spectrometer (AB Sciex™) operating in Multiple Reaction Monitoring (MRM) mode and equipped with a TIS ion source. The specific ions monitored are PQS (m/z 260→m/z 175), D4-PQS (m/z 264→m/z 179), HHQ (m/z 244→m/z 159) and D4-HHQ (m/z 248→m/z 163). PQS and HHQ in presence of different test compound concentrations are expressed as percentage of inhibition of the basal level in control samples.

PQS [2] = test: PQS Inhibition Assay (24 Hour Incubation); format: cell-based, P. aeruginosa PA14 wild-type strain
Description: Test compounds are dissolved in DMSO at 10 mM and stored at −20° C. until needed. Seven test concentrations from 0.0032 micromolar to 31.6 micromolar are used for each compound. P. aeruginosa PA14 wild-type strain is inoculated into 5 mL LB broth in a 15-mL sterile glass culture tube and incubated overnight at 37° C. under shaking (˜240 rpm). The overnight culture is then diluted in LB Broth to give an OD600=0.04 (T0 culture). Colony Forming Units (CFU)/mL of the overnight culture and T0 culture are determined by a series of 1:10 serial dilutions in sterile saline. 4×20 μL of each dilution is seeded on LB agar plates and incubated at 35±2° C. for 20 hours. CFU/mL is determined from the dilution that gives 2 to 50 colonies/20 μL.
For concentration response curve (CRC) experiments, internal standard (2-((5-nitro-1H-indol-2-yl)thio)-N-(4-phenoxyphenyl)acetamide)) and test compounds are serially diluted in DMSO to give 200 times of each final concentration (0.5% DMSO final), and 1 μL/well is dispensed in duplicate into 2-mL wells of a 96 well deep well plate. 200 μL/well of T0 culture is added to each internal standard/test compound well used to determine PQS control level. Wells containing only LB broth (blank wells) are also included in the plate.
The plate is sealed and incubated at 37° C. for 24 hours under shaking (˜700 rpm) using a microtiter shaker. At the end of the incubation period, 150 μL/well of the deep well plate culture are transferred in a new non-sterile plate, and 150 μL/well of methanol containing tetra-deuterated PQS (D4-PQS) and 2% acetic acid are added to each well. The plate is sealed, shaken at high speed for 5 minutes and centrifuged at 4,000 g for 40 minutes at room temperature. 100 μL/well of the supernatant is then transferred to glass vials (vials crimp 0.2 mL) and kept at 4° C. until LC-MS/MS analysis.
PQSs quantification is carried out by analyzing samples in discrete batches together with spiked standards and blank samples.
Calibration curves are constructed from PQS standards, and respective deuterated PQS is used as an Internal Standards (IS) to calculate the concentration of analytes in the sample and improve the precision of the assay. The back-calculated concentrations of the calibration standards from the calibration curve shall be within ±20% of the nominal values, the range of the analytical method is determined, and the lower and upper limit of quantification specified.
as §1, with “performed using an Agilent HP1100” for “performed using Agilent HP1100”
The MS/MS analysis is performed with an API4000 series mass spectrometer (AB Sciex™) operating in Multiple Reaction Monitoring (MRM) mode and equipped with a TIS ion source. The specific ions monitored are PQS (m/z 260→m/z 175) and D4-PQS (m/z 264→m/z 179). The computer systems used in this study to acquire and quantify data may be an Analyst™ v1.5.
PQS in the presence of different concentrations of test compound are expressed as percentage of inhibition of the basal level in control samples. Curve fitting and IC50 estimations are carried out using a four parameter logistic model using GraphPad Prism v.5 program.

[3] = Pseudomonas aeruginosa, PA14, 6 h, read-out: PQS (6 hr) IC50 (μM)
[4] = Pseudomonas aeruginosa, PA14, 24 h, read-out: PQS (24 hr) IC50 (μM)

| Compound | IC50 (PQS [1]; [3]) | IC50 (PQS [2]; [4]) | IC50 (PQS [1]; P. aeruginosa PA14 culture, 6 hours incubation, PQS by LC-MS/MS, read-out: PQS (6 hr) IC50) | IC50 (PQS [2]; P. aeruginosa PA14 culture, 24 hours incubation, PQS by LC-MS/MS, read-out: PQS (24 hr) IC50) |
| --- | --- | --- | --- | --- |
| N#Cc1ccc(NC(=O)CSc2nc3cc(Cl)ccc3[nH]2)cc1 [Compound 125] | < 1 µM | < 1 µM | – | – |
| O=C(CSc1nc2ccc(-n3cccn3)cc2[nH]1)Nc1ccc(Cl)cc1 [Compound 116] | > 10 µM | > 10 µM | – | – |
| O=C(CSc1nc2ccc(Cl)cc2[nH]1)Nc1ccc(Cl)cc1 [Compound 137] | < 1 µM | 1 to 5 µM | – | – |
| N#Cc1ccc(NC(=O)CSc2nc3cc(Br)ccc3[nH]2)cc1 [Compound 96] | < 1 µM | < 1 µM | – | – |
| O=C(CSc1nc2cc(F)ccc2[nH]1)Nc1ccc(Cl)cc1 [Compound 110] | 1 to 5 µM | 5 to 10 µM | – | – |
| N#Cc1ccc(NC(=O)CSc2nc3cc(F)ccc3[nH]2)cc1 [Compound 57] | 1 to 5 µM | 1 to 5 µM | – | – |
| O=C(CSc1nc2cc(C(F)(F)F)ccc2[nH]1)Nc1ccc(Cl)cc1 [Compound 105] | < 1 µM | 1 to 5 µM | – | – |
| O=C(CCc1nc2ccc(Cl)cc2s1)Nc1ccc(Oc2cccnc2)cc1 [Compound 86, 3-(6-Chlorobenzo[d]thiazol-2-yl)-N-(4-(pyridin-3-yloxy)phenyl)propanamide] | > 10 µM | > 10 µM | – | – |
| O=C(CSc1nc2cc(Cl)ccc2[nH]1)Nc1ccc(Oc2ccc(Cl)nc2)cc1 [Compound 84, 2-((5-chloro-1H-benzo[d]imidazol-2-yl)thio)-N-(4-((6-chloropyridin-3-yl)oxy)phenyl)acetamide] | < 1 µM | 1 to 5 µM | – | – |
| N#Cc1ccc(NC(=O)CSc2nc3cc(C(F)(F)F)ccc3[nH]2)cc1 [Compound 56] | < 1 µM | < 1 µM | – | – |
| O=C(CNc1nc2cc(Cl)ccc2s1)Nc1ccc(Oc2cccnc2)cc1 [Compound 71, 2-((5-chlorobenzo[d]thiazol-2-yl)amino)-N-(4-(pyridin-3-yloxy)phenyl)acetamide] | 1 to 5 µM | 5 to 10 µM | – | – |
| N#Cc1ccc(NC(=O)CSc2nc3cc(Cl)ccc3[nH]2)cc1Cl [Compound 142] | < 1 µM | < 1 µM | – | – |
| N#Cc1ccc2nc(SCC(=O)Nc3ccc(Cl)cc3)[nH]c2c1 [Compound 94] | 1 to 5 µM | 1 to 5 µM | – | – |
| O=C(CNc1nc2cc(Cl)ccc2o1)Nc1ccc(Oc2cccnc2)cc1 [Compound 74, 2-((5-chlorobenzo[d]oxazol-2-yl)amino)-N-(4-(pyridin-3-yloxy)phenyl)acetamide] | 1 to 5 µM | 1 to 5 µM | – | – |
| COc1ccc(NC(=O)CSc2nc3ccc(Cl)cc3[nH]2)cc1 [Compound 140] | 5 to 10 µM | 5 to 10 µM | – | – |
| O=C(CSc1nc2cc(Cl)ccc2[nH]1)Nc1ccc(Oc2cccnc2)cc1 [Compound 77, 2-((5-chloro-1H-benzo[d]imidazol-2-yl)thio)-N-(4-(pyridin-3-yloxy)phenyl)acetamide] | < 1 µM | < 1 µM | – | – |
| O=C(CCc1nc2ccc(Cl)cc2[nH]1)Nc1ccc(Oc2cccnc2)cc1 [Compound 152, 3-(5-chloro-1H-benzo[d]imidazol-2-yl)-N-(4-(pyridin-3-yloxy)phenyl)propanamide] | < 1 µM | 1 to 5 µM | – | – |
| O=C(CCc1nc2cc(Cl)ccc2s1)Nc1ccc(Oc2cccnc2)cc1 [Compound 85, 3-(5-chlorobenzo[d]thiazol-2-yl)-N-(4-(pyridin-3-yloxy)phenyl)propanamide] | 1 to 5 µM | > 10 µM | – | – |
| N#Cc1ccc(NC(=O)CSc2nc3cc(OC(F)F)ccc3[nH]2)cc1 [Compound 104] | 1 to 5 µM | 5 to 10 µM | – | – |
| N#Cc1ccc(NC(=O)CSc2nc3cc(Br)ccc3o2)cc1 [Compound 147] | < 1 µM | 1 to 5 µM | – | – |
| 2-((5-chloro-1H-benzo[d]imidazol-2-yl)thio)-N-(4-(pyrimidin-5-yloxy)phenyl)acetamide [Compound 79] | – | – | < 1 µM | < 1 µM |
| O=C(CSc1nc2cc(Cl)ccc2[nH]1)Nc1ccc(Oc2cccnc2Cl)cc1 [Compound 83, 2-((5-chloro-1H-benzo[d]imidazol-2-yl)thio)-N-(4-((2-chloropyridin-3-yl)oxy)phenyl)acetamide] | < 1 µM | < 1 µM | – | – |
| O=C(CSc1nc2cc(F)c(F)cc2[nH]1)Nc1ccc(Br)cc1 [Compound 126] | 1 to 5 µM | > 10 µM | – | – |
| O=C(CSc1nc2ccc(Br)cc2[nH]1)Nc1ccc(Cl)cc1 [Compound 145] | < 1 µM | > 10 µM | – | – |
| N#Cc1ccc(NC(=O)CSc2nc3ccc(C#N)cc3[nH]2)cc1 [Compound 93] | 1 to 5 µM | < 1 µM | – | – |
